Experimental data: US20120289492A1, “METHODS OF TREATING MITOCHONDRIAL DISORDERS USING METALLOPORPHYRINS” (priority 2009, published 2012)

Experiment: Peroxynitrite-induced oxidation of dihydrorhodamine-123
Assay type: biochemical
Conditions: peroxynitrite 1 μM, dihydrorhodamine 123 10 μM, pH 7.4
From the text: Mitochondrial oxidative stress production To determine if increased oxidative stress occurred in mitochondrial fractions, the levels of CoASH, CoASSG, aconitase, ascorbate, cysteine, methionine and 3-NT were examined in the forebrain of Sod2 −/− mice at 15-16 days old. GSH is the most abundant thiol containing antioxidant in tissues and brain (Meister & Anderson (1983) Annu Rev Biochem 52, 711-60) and plays an important role in preventing oxidative damage. […] To determine if direct scavenging of ONOO− could result in decreased 3NT levels by AEOL11207, we measured its ability to inhibit ONOO-induced oxidation of dihydrorhodamine-123.
Measurement of peroxynitrite-induced oxidation of dihydrorhodamine-123 inhibition by metalloporphyrins The peroxynitrite-dependent oxidation of dihydrorhodamine-123 to rhodamine-123 is measured based on previously described methods (Kooy et al. (1994) Free Radic Biol Med 16, 149-56; Szabo, et al. (1996) FEBS Lett 381, 82-6). […] After 10 min incubation at room temperature, the fluorescence of rhodamine 123 was measured using a fluorimeter (Perkin-Elmer, Norwalk, Conn.) at an excitation wavelength of 500 nm, emission wavelength of 536 nm

Compound `COC(=O)c1c2nc(c(C(F)(F)F)c3ccc([n-]3)c(C(=O)OC)c3nc(c(C(F)(F)F)c4ccc1[n-]4)C=C3)C=C2.[Cl-].[Mn+3]` [AEOL11207] has an IC50 of 3.7 µM.
